Molecular target: T1, IGPD (imidazole glycerol phosphate dehydratase) (Staphylococcus xylosus, UniProt A0A5R9B0J7)
T1 construct: gene hisB; recombinant, pET30a-hisB, E. coli host; His tag implied (coupled to Octet NTA sensor)
T1 sequence (A0A5R9B0J7 1-192): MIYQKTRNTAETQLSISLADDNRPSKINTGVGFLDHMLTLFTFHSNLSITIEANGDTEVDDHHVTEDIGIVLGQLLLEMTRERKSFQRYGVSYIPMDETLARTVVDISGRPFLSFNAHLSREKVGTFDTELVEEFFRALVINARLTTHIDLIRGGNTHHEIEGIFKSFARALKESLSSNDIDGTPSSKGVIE
Assay: bio-layer interferometry (Octet, IGPD on NTA tip)
Assay type: binding

C[C@@H]1O[C@@H](OC[C@H]2O[C@@H](Oc3c(-c4ccc(O)c(O)c4)oc4cc(O)cc(O)c4c3=O)[C@H](O)[C@@H](O)[C@@H]2O)[C@H](O)[C@H](O)[C@H]1O [rutin]
Kd: 1000 µM
